Reference: US20070197509A1, “Compositions and methods for modulating gated ion channels” (PainCeptor Pharma Corporation, priority 2005, published 2007)
Entries after “also recorded” stand apart in the source; their conditions may differ.

Biological target: T1, hASIC1a (Homo sapiens, UniProt P78348)
T1 sequence (P78348 1-528): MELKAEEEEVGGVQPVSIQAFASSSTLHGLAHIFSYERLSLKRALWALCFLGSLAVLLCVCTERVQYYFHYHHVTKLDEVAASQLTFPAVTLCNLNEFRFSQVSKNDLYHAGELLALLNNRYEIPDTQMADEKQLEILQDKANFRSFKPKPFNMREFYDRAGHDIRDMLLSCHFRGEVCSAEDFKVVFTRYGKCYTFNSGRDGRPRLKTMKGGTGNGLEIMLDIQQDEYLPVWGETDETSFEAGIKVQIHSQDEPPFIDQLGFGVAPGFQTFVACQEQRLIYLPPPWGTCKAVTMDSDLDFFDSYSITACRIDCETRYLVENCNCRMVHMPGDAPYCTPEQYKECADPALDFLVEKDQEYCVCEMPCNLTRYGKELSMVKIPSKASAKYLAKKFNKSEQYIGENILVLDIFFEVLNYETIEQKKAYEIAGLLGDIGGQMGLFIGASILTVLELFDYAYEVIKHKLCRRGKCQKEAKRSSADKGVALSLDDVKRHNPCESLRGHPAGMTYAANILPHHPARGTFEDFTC
Assay: Two-electrode voltage clamp in Xenopus laevis oocytes expressing hASIC1a (OpusExpress)
Type: cell-based
Set-up: expressed in transfected cells; host or cells: Xenopus laevis oocytes, nuclear microinjection of cDNA (e.g. in pCDNA3)
Conditions: 30 uM, OpusExpress; kind of effect not given
Experimental: Two-electrode voltage clamp electrophysiological assays in Xenopus laevis oocytes expressing gated ion channels are performed as follows:
Oocytes are surgically removed from adult Xenopus laevis and treated for 2 h at room temperature with 1 mg/ml type I collagenase (Sigma) in Barth's solution under mild agitation. Selected oocytes at stage IV-V are defolliculated manually before nuclear microinjection of 2.5-5 ng of a suitable expression vector, such as pCDNA3, comprising the nucleotide sequence encoding a gated ion channel subunit protein. In such an experiment, the oocytes express homomultimeric proton-gated ion channels on their surface. In an alternate experiment, one, two, three or more vectors comprising the coding sequences for distinct gated ion channel subunits are co-injected in the oocyte nuclei. In the latter case, oocytes express heteromultimeric proton-gated ion channels. […] Once impaled with the microelectrodes, oocytes are continuously superfused at 10-12 ml/min with a modified Ringer's solution containing 97 mM NaCl, 2 mM KCl, 1.8 mM CaCl2, and 10 mM HEPES brought to pH 7.4 with NaOH (Control Ringer). Test Ringer solution is prepared by replacing HEPES with MES and adjusting the pH to the desired acidic value. Compounds of the present invention are prepared in both the Control and Test Ringer solutions and applied to oocytes at room temperature through a computer-controlled switching valve system. […] Similarly, recordings can also be acquired in an automated multichannel oocytes system as the OpusExpress™ (Molecular Devices, Sunnyvale, Calif., USA).
Recordings were acquired from oocytes expressing homomeric hASIC1a using a two-electrode voltage-clamp configuration procedure as described herein.

Structure (SMILES)	approx. % at 30 uM (OX)
Cc1cc(OC2CCN(Cc3ccc(Cl)cc3)CC2)c2ccccc2n1 [Compound 5, 4[1-(4-chloro-benzyl)-piperidin-4-yloxy]-2-methyl-quinoline]	approx. 15% at 30 uM (OX)

Same assay, conditions: OpusExpress (OX), Tables A-F; h1a printed in some cells only

Structure (SMILES)	Biological Data (IC50 uM) h1a (OX)
Cc1ccc(-c2nc(OCCCCCl)c3cc([N+](=O)[O-])ccc3n2)cc1 [Compound 109, 4-(4-chloro-butoxy)-6-nitro-2-p-tolyl-quinazoline]	Not Active (OX)
O=C(O)c1ccc(Nc2ncnc3ccccc23)cc1 [Compound 102, 4-(quinazolin-4-ylamino)-benzoic acid]	Not Active (OX)
CCc1nc(NCCOC)c2ccccc2n1 [Compound 111, (2-ethyl-quinazolin-4-yl)-(2-methoxy-ethyl)-amine]	Not Active (OX)
Cc1ccc(-c2nc(NC3CCN(Cc4ccccc4)CC3)c3ccc(Cl)cc3n2)cc1 [Compound 108, (1-benzyl-piperidin-4-yl)-(7-chloro-2-p-tolyl-quinazolin-4-yl)-amine]	Not Active (OX)
Cc1cc(OC2CCN(C(=O)c3ccccc3)CC2)c2ccccc2n1 [Compound 6, [4-(2-methyl-quinolin-4-yloxy)-piperidin-1-yl]-phenyl-methanone]	Not Active (OX)
Cc1cc(N2CCN(c3ccc([N+](=O)[O-])cc3)CC2)c2ccccc2n1 [Compound 61, 2-methyl-4-[4-(4-nitro-phenyl)-piperazin-1-yl]-quinoline]	Not Active (OX)
Cc1cc(OC2CCN(C(=O)OC(C)(C)C)CC2)c2ccccc2n1 [Compound 12, 4-(2-methyl-quinolin-4-yloxy)-piperidine-1-carboxylic acid tert butyl ester]	Not Active (OX)
Cc1ccc(-c2nc(N3CCCCC3)c3ccc(Cl)cc3n2)cc1 [Compound 110, 7-chloro-4-piperidin-1-yl-2-p-tolyl-quinazoline]	Not Active (OX)
Cc1ccc(-c2nc(Nc3ccccc3)c3ccccc3n2)cc1 [Compound 104, Phenyl-(2-p-tolyl-quinazolin-4-yl)-amine]	Not Active (OX)
Cc1cc(N2CCN(C(=O)OC(C)(C)C)CC2)c2ccccc2n1 [Compound 59, 4-(2-methyl-quinolin-4-yl)-piperazine-1-carboxylic acid tert-butyl ester]	Not Active (OX)
FC(F)(F)c1cc(OC2CCN(Cc3ccccc3)CC2)c2cccc(C(F)(F)F)c2n1 [Compound 10, 4-(1-benzyl-piperidin-4-yloxy)-2,8-bis-trifluoromethyl-quinoline]	Not Active (OX)
Cc1cc(OC2CCN(Cc3ccccc3)CC2)c2ccc(Cl)cc2n1 [Compound 9, 4-(1-benzyl-piperidin-4-yloxy)-7-chloro-2-methyl-quinoline]	Not Active (OX)
Clc1ccc2c(OC3CCN(Cc4ccccc4)CC3)ccnc2c1 [Compound 11, 4-(1-benzyl-piperidin-4-yloxy)-7-chloro-quinoline]	Not Active (OX)
Cc1cc(OC2CCN(CC(C)(C)C)CC2)c2ccccc2n1 [Compound 15, 4-[1-(2,2-dimethyl-propyl)-piperidin-4-yloxy]-2-methyl-quinoline]	Not Active (OX)
Cc1cc(N2CCN(c3ccccc3C#N)CC2)c2ccccc2n1 [Compound 60, 2-[4-(2-methyl-quinolin-4-yl)-piperazin-1-yl]-benzonitrile]	Not Active (OX)
O=C(O)c1ccc(Nc2ncnc3ccc([N+](=O)[O-])cc23)cc1 [Compound 103, 4-(6-nitro-quinazolin-4-ylamino)-benzoic acid]	Not Active (OX)
Cc1ccc(-c2nc(N(C)c3ccc(C(=O)O)cc3)c3ccccc3n2)cc1 [Compound 106, 4-[methyl-(2-p-tolyl-quinazolin-4-yl)-amino]-benzoic acid]	Not Active (OX)
CCc1nc(NC2CCN(Cc3ccccc3)CC2)c2ccccc2n1 [Compound 33, (1-benzyl-piperidin-4-yl)-(2-ethyl-quinazolin-4-yl)-amine]	Not Active
COc1ccc(-c2cc(C(=O)N3CCN(Cc4ccc5c(c4)OCO5)CC3)c3cc(Cl)ccc3n2)c(O)c1 [Compound 45, (4-benzo[1,3]dioxol-5-ylmethyl-piperazin-1-yl)-[6-chloro-2-(2-hydroxy-4-methoxy-phenyl)-quinolin-4-yl]-methanone]	Not Active (OX)
COc1ccc(-c2cc(C(=O)N3CCN(CCc4ccccc4)CC3)c3ccccc3n2)cc1OC [Compound 42, [2-(3,4-dimethoxy-phenyl)-quinolin-4-yl]-(4-phenethyl-piperazin-1-yl)-methanone]	Not Active (OX)
Cc1cc(OC2CCN(Cc3ccccc3)CC2)c2cccc(C)c2n1 [Compound 14, 4-(1-benzyl-piperidin-4-yloxy)-2,8-dimethyl-quinoline]	Not Active (OX)
c1ccc(CN2CCC(Oc3cc(-c4ccccc4)nc4ccccc34)CC2)cc1 [Compound 3, 4-(1-benzyl-piperidin-4-yloxy)-2-phenyl-quinoline]	Not Active (OX)
Cc1ccc(-c2nc(NCCCC(=O)O)c3ccccc3n2)cc1 [Compound 105, 4-(2-p-tolyl-quinazolin-4-ylamino)-butyric acid]	Not Active (OX)

Same assay, conditions: OpusExpress (OX), Tables A-F; h1a printed in some cells only; read-out: Biological Data (IC50 uM) h1a (OX)

Structure (SMILES)	IC50 [µM]
Cc1cc(OCCCN(C)Cc2ccccc2)c2ccccc2n1 [Compound 1, benzyl-methyl-[3-(2-methyl-quinolin-4-yloxy)-propyl]-amine]	> 30
COc1ccc2nc(C)cc(OC3CCN(Cc4ccccc4)CC3)c2c1 [Compound 8, 4-(1-benzyl-piperidin-4-yloxy)-6-methoxy-2-methyl-quinoline]	> 30
CCc1nc(N(C)C2CCN(Cc3ccccc3)CC2)c2ccccc2n1 [Compound 32, (1-benzyl-piperidin-4-yl)-(2-ethyl-quinazolin-4-yl)-methyl-amine]	15 to 25
Cc1cc(OC2CCN(C)CC2)c2ccccc2n1 [Compound 4, 2-methyl-4-(1-methyl-piperidin-4-yloxy)-quinoline]	> 30
Cc1cc(OC2CCN(CC(C)C)CC2)c2ccccc2n1 [Compound 29, 4-(1-isobutyl-piperidin-4-yloxy)-2-methyl-quinoline]	> 30
Cc1cc(OC2CCN(Cc3ccccc3)CC2)c2cc(Br)ccc2n1 [Compound 7, 4-(1-benzyl-piperidin-4-yloxy)-6-bromo-2-methyl-quinoline]	10 to 20
COc1ccc(CN2CCC(Oc3cc(C)nc4ccccc34)CC2)cc1 [Compound 112, 4-[1-(4-Methoxy-benzyl)-piperidin-4-yloxy]-2-methyl-quinoline]	15 to 25
Cc1cc(OC2CCN(CCc3ccccc3)CC2)c2ccccc2n1 [Compound 2, 2-methyl-4-(1-phenethyl-piperidin-4-yloxy)-quinoline]	> 30
C=CCOC(=O)N1CCC(Oc2cc(C)nc3ccccc23)CC1 [Compound 113, 4-(2-methyl-quinolin-4-yloxy)-piperidine-1-carboxylic acid allyl ester]	> 30
FC(F)(F)c1cc(OC2CCN(Cc3ccccc3)CC2)c2ccccc2n1 [Compound 13, 4-(1-benzyl-piperidin-4-yloxy)-2-trifluoromethyl-quinoline]	20 to 35

Same assay, conditions: OpusExpress, two-electrode voltage clamp, dose-response

Structure (SMILES)	effect on hASIC1a current evoked by pH 6.5 in oocytes (FIGS. 4A-4D)
CCc1nc(N(C)C2CCN(Cc3ccccc3)CC2)c2ccccc2n1 [Compound 32, (1-benzyl-piperidin-4-yl)-(2-ethyl-quinazolin-4-yl)-methyl-amine]	effective modulators; also recorded: dose-dependent reduction
Cc1cc(OC2CCN(Cc3ccccc3)CC2)c2cc(Br)ccc2n1 [Compound 7, 4-(1-benzyl-piperidin-4-yloxy)-6-bromo-2-methyl-quinoline]	effective modulators; also recorded: dose-dependent reduction

Same assay, conditions: Table H; read-out: IC50 (μM) Opus Express (h1a)

Structure (SMILES)	IC50 [µM]
CCc1nc(N(C)C2CCN(Cc3ccccc3)CC2)c2ccccc2n1 [Compound 32, (1-benzyl-piperidin-4-yl)-(2-ethyl-quinazolin-4-yl)-methyl-amine]	20.7
Cc1cc(OC2CCN(Cc3ccccc3)CC2)c2cccc(F)c2n1 [Compound 24, 4-(1-benzyl-piperidin-4-yloxy)-8-fluoro-2-methyl-quinoline]	1.25
Cc1cc(OC2CCN(Cc3ccccc3)CC2)c2cc(Br)ccc2n1 [Compound 7, 4-(1-benzyl-piperidin-4-yloxy)-6-bromo-2-methyl-quinoline]	13.2
C=CCOC(=O)N1CCC(Oc2cc(C)nc3ccccc23)CC1 [Compound 113, 4-(2-methyl-quinolin-4-yloxy)-piperidine-1-carboxylic acid allyl ester]	17.1
FC(F)(F)c1cc(OC2CCN(Cc3ccccc3)CC2)c2ccccc2n1 [Compound 13, 4-(1-benzyl-piperidin-4-yloxy)-2-trifluoromethyl-quinoline]	27.6
